Experimental data taken from patent EP4001271A1, “CRYSTALLINE FORM OF 2-CHLORO-N-CYCLOPROPYL-5-[1-[2,6-DICHLORO-4-[1,2,2,2-TETRAFLUORO-1- (TRIFLUOROMETHYL)ETHYL]PHENYL]PYRAZOL-4-YL]-N-METHYL-PYRIDINE-3-CARBOXAMIDE” (Bayer Aktiengesellschaft, priority 2020, dated 2022).
Read-outs that look alike come from different tables or passages of the source.

Experiments:
Assay type in all cases: physicochemical
[1] = Storage experiment, influence of temperature on stability of crystalline form A (HPLC purity, XRD form); details: for Purity / remaining at 672 h / remaining at 2016 h / remaining at 4032 h: HPLC, 1 mg/2mL ACN; for remaining at 672 h / remaining at 2016 h / remaining at 4032 h: solid storage
Description: (§1) For Powder X-Ray Diffraction (XRD) the samples were placed into standard glass capillaries (∅ = 0.7 mm). The measurements were performed at room temperature with a D8 Bruker Advance Diffractometer (Cu-Kα1 = 1.5406 Å, Johansson primary beam monochromator, position sensitive detector) in transmission mode with rotation of the sample. Data were collected in a two-theta range of 2 - 38°. The tube voltage and current were 40 kV and 40 mA, respectively. [table] [table] Storage experiments in different environments (25°C, 50°C, 25°C/85 % RH) were performed to investigate the influence of temperature and moisture on the stability of crystalline form A of the compound of formula (I). […] Two samples of crystalline form A were stored at 25°C and 50°C, respectively (see Table 7). The samples were analyzed after 0, 1, 3, and 6 months by DSC, TGA, spectroscopy, X-ray powder diffraction, and HPLC (measurements for chemical stability). […] Exemplarily, the HPLC results are disclosed in Table 7. Table 7. Influence of temperature after four, 12, and 24 weeks. Purity determined by HPLC. ACN denotes acetonitrile. *entry 16 of Table 6

[2] = Storage experiment, influence of humidity on stability of crystalline form A (HPLC purity, XRD form)
Description: as §1, with “25°C/approx. 85 % rel. humidity” for “25°C and 50°C, respectively”, “8).” for “7).”, “8.” for “7.”, “humidity 0, 1, 3” for “temperature after four, 12,”, “6 months.” for “24 weeks.”

[3] = DVS water sorption study (hydrate formation); details: 0 to 90% RH and back in 10% increments
Description: The water sorption was determined using a DVS Resolution (London, UK) gravimetric sorption analyzer. The sample was dried at 0% relative humidity for 1000 minutes, after which the dry mass was recorded. Humidity was ramped in 10% increments to 90% RH and then back to 0% RH. The equilibrium criterion was set to a relative mass change of dm/dt=0.002%/minute.

[4] = Quantitative solubility in solvents, stepwise solvent addition with visual check; details: read-out: solubility (concentration in solvent)
Description: The solubility of the active provided in Example 1 was further investigated in various solvents (entry 1 to 14 of Table 6). For the determination of the quantitative solubility, the respective solvent(-mixture) was added to approx. 40 mg of the solid, up to a maximum solvent addition of 2 mL in 50 - 200 µL steps. The vials were sealed between each addition of the solvent and the solubility was checked visually. […] Optically clear solutions were filtered via a so-called syringe prefilter and evaporated to dryness at different temperatures. Furthermore, cooling crystallizations were carried out. Undissolved substances were stirred for one week at room temperature in the respective anti-solvent. Table 5. Selection of solvents and anti-solvents
Based on the solvents and anti-solvents from Table 5, crystallization experiments, listed in Table 6, were carried out to obtain new solid forms of the active provided in Example 1. X-ray powder diffraction was used to assess whether a new phase has been formed.

CN(C(=O)c1cc(-c2cnn(-c3c(Cl)cc(C(F)(C(F)(F)F)C(F)(F)F)cc3Cl)c2)cnc1Cl)C1CC1 [crystalline form A, 2-chloro-N-cyclopropyl-5-[1-[2,6-dichloro-4-[1,2,2,2-tetrafluoro-1-(trifluoromethyl)ethyl]phenyl]pyrazol-4-yl]-N-methyl-pyridine-3-carboxamide]
phase transition on storage ([1]; 25°C and 50°C, after twelve weeks): no phase transition | change in DSC, TGA, spectroscopy, X-ray powder diffraction and HPLC measurements on storage ([1]; 25°C and 50°C, after 0, 1, 3 and 6 months): did not result in a significant change | Purity ([1]; 25 °C, 4 weeks, 40320 min, listed as 16*): 99.09% | Purity ([1]; 25 °C, 12 weeks, 120960 min, listed as 16*): 99.23% | Purity ([1]; 50 °C, 12 weeks, 120960 min, listed as 16*): 99.25% | Purity ([1]; 50 °C, 24 weeks, 241920 min, listed as 16*): 99.34% | Purity ([1]; no storage (initial value)): 99.54% | remaining at 672 h ([1]; 25 °C, 4 weeks): 98.3% | remaining at 2016 h ([1]; 25 °C, 12 weeks): 99.3% | remaining at 4032 h ([1]; 25 °C, 24 weeks): 99.4% | remaining at 672 h ([1]; 50 °C, 4 weeks): 99.1% | remaining at 2016 h ([1]; 50 °C, 12 weeks): 99.5% | remaining at 4032 h ([1]; 50 °C, 24 weeks): 99.4% | Purity ([2]; 25 °C, 85% RH, 4 weeks, HPLC, 1 mg/2mL ACN, 40320 min, listed as 16*): 99.10% | Purity ([2]; 25 °C, 85% RH, 12 weeks, HPLC, 1 mg/2mL ACN, 120960 min, listed as 16*): 99.25% | Purity ([2]; 25 °C, 85% RH, 24 weeks, HPLC, 1 mg/2mL ACN, 241920 min, listed as 16*): 99.75% | phase transition on storage ([2]; 25°C/85 % RH, after twelve weeks): no phase transition | change in DSC, TGA, spectroscopy, X-ray powder diffraction and HPLC measurements on storage ([2]; 25°C/approx. 85 % rel. humidity, after 0, 1, 3 and 6 months): did not result in a significant change | Purity ([2]; no storage (initial value), HPLC, 1 mg/2mL ACN): 99.54% | remaining at 672 h ([2]; solid storage, 85% rh, 25 °C, 4 weeks, HPLC, 1 mg/2mL ACN): 99% | remaining at 2016 h ([2]; solid storage, 85% rh, 25 °C, 12 weeks, HPLC, 1 mg/2mL ACN): 99.3% | remaining at 4032 h ([2]; solid storage, 85% rh, 25 °C, 24 weeks, HPLC, 1 mg/2mL ACN): 99.4% | hydrate formation [3]: does not form hydrates | hygroscopicity [3]: not hygroscopic | mass increase over the entire area [3]: negligibly small

CN(C(=O)c1cc(-c2cnn(-c3c(Cl)cc(C(F)(C(F)(F)F)C(F)(F)F)cc3Cl)c2)cnc1Cl)C1CC1 [compound of formula (I), 2-Chloro-N-cyclopropyl-5-[1-[2,6-dichloro-4-[1,2,2,2-tetrafluoro-1-(trifluoromethyl)ethyl]phenyl]pyrazol-4-yl]-N-methyl-pyridine-3-carboxamide]
solubility ([4]; 3-methyl-1-butanol, organic solvent or mixture, 3-methyl-1-butanol, entry 9, evaporation 50°C): 21 mg/mL | solubility ([4]; acetonitrile, organic solvent or mixture, acetonitrile, entry 14, evaporation at ambient conditions): 30 mg/mL | solubility ([4]; cyclohexane, organic solvent or mixture, cyclohexane (anti-solvent, not completely dissolved), entry 8, slurry 1 week): 19 mg/mL | solubility ([4]; ethanol, organic solvent or mixture, EtOH, entry 5, evaporation at ambient conditions): 25 mg/mL | solubility ([4]; heptane, organic solvent or mixture, heptane (anti-solvent, not completely dissolved), entry 7, slurry 1 week): 19 mg/mL | solubility ([4]; isopropyl alcohol, organic solvent or mixture, isopropyl alcohol, entry 1, clear solution, evaporation at ambient conditions): 17 mg/mL | solubility ([4]; isopropyl alcohol/propylene carbonate 65:35, organic solvent or mixture, isopropyl alcohol/propylene carbonate 65:35 %w/w, entry 3, slurry 1 week): 268 mg/mL | solubility ([4]; isopropyl alcohol/propylene carbonate 65:35, organic solvent or mixture, isopropyl alcohol/propylene carbonate 65:35 %w/w, entry 4, evaporation 50°C): 93 mg/mL | solubility ([4]; propylene carbonate, organic solvent or mixture, propylene carbonate, entry 2, slurry 1 week): 276 mg/mL | solubility ([4]; water, H2O (anti-solvent, not completely dissolved), entry 6, slurry 1 week): 19 mg/mL
